The values that follow come from article PMC2858410 (The Journal of comparative neurology, 2008).

Test [1] concerns the target T1, human α2A-adrenergic receptor (hα2A; αh2A) (Homo sapiens, UniProt P08913).
T1 sequence (P08913 1-465): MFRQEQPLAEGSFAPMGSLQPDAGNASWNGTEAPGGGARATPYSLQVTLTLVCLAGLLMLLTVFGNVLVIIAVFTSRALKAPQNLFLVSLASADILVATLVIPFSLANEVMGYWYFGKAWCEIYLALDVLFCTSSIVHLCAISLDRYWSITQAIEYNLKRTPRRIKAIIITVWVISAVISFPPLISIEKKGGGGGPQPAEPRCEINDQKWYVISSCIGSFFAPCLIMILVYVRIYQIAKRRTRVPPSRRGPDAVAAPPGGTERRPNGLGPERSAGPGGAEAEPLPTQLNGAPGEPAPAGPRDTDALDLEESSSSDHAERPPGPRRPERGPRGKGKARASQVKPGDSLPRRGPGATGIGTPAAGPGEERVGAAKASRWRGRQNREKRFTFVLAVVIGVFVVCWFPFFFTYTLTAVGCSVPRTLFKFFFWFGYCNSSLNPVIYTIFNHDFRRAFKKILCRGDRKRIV
Briefly: radioligand binding, filtration, Sf9 membranes. Particulars: labelled compound, […]; […] Tris-HCl pH […] MgCl2, […] EDTA; […] h.

Test [2] concerns the target T1, human α2A-adrenergic receptor (hα2A; αh2A). Briefly: [3H]RX821002 displacement, filtration, Sf9 membranes. It counts as binding. Particulars: […] [3H]RX821002; […] Tris-HCl pH […] MgCl2, […] EDTA.

For `COC1(C2=NCCN2)COc2ccccc2O1` (stereo not shown) [RX821002], the “radioligand binding, filtration, Sf9 membranes” value in test [1] is “[^3H]RX821002 binding was concentration-dependently inhibited by increasing concentrations of both norepinephrine and dopamine”.

For the compound `CN1CCc2cc(Cl)c(O)cc2[C@@H](c2ccccc2)C1` [SCH-23390], the “[3H]RX821002 displacement, filtration, Sf9 membranes” value (shortened to “[3H]RX821002 displacement”) in test [2] was “apomorphine, SCH-23390 and clozapine display a substantial affinity for α2a-adrenergic receptors”.

On to `CN1CCc2cccc3c2[C@H]1Cc1ccc(O)c(O)c1-3` [apomorphine], for which the “[3H]RX821002 displacement” value in test [2] was “apomorphine, SCH-23390 and clozapine display a substantial affinity for α2a-adrenergic receptors”.

For `CN1CCN(C2=Nc3cc(Cl)ccc3Nc3ccccc32)CC1` [clozapine], the “[3H]RX821002 displacement” value in test [2] is “apomorphine, SCH-23390 and clozapine display a substantial affinity for α2a-adrenergic receptors”.
